Data published in patent US11965006B2, “Antimicrobial and anti-cancer therapy” (UNIVERSITY OF PITTSBURGH—OF THE COMMONWEALTH SYSTEM OF …, priority 2016, dated 2024).
Ends that are not written are not given here.

Key:
[1] = test system: primary Human bronchial epithelial (HBE) cells; assay: Toxicity to primary cells, tetrazolium-based viability assay; type: cell-based; settings: treated 2 h
Protocol: Anti-cancer activity of SEQ ID No. 26 and its D-amino acid modified enantiomer, SEQ ID. No. 34. SEQ ID. No. 34 was compared to SEQ ID No. 26 for selective anti-cancer activities using cancer cell lines of the respiratory system. See FIG. 22A for H460 (large cell lung cancer) and Calu-1 (non-small cell lung cancer) and FIG. 22B for primary Human bronchial epithelial (HBE) cells. The cells were grown to 80% confluence and then treated with each AMP for 2 h. Percent viability was examined using a tetrazolium-based assay assessing the mitochondrial integrity. […] No. 34; however SEQ ID. […] No. 34. Therefore, SEQ ID. […] No. 26.

Hep2 epithelial cells = assay: Hep2 cytopathology in RSV plaque assay; type: cell-based; settings: 32 μM
Protocol: Using a standard plaque assay, RSV replication was quantified in permissive Hep2 epithelial cells in the presence or absence of various AMPs. RSV plaque assays were used to determine the minimum dose required to induce Hep2 cytopathology and maximum anti-viral effects. Experimental controls included Hep2 cells+/−RSV and Hep-2 cells with AMP only.
Hep2 control cells without the AMP were also plated. Both plates were infected with the same dilution of A2 RSV virus. There is extensive sloughing of cells treated with the peptide (top plate) as compared to cells which were not (bottom plate), FIG. 18.

[2] = In vivo toxicity / maximum tolerated dose; design: species or system Mice (strain: Swiss Webster)
Protocol: The modified AMPs show a lower toxicity and higher maximum tolerated dosage (MTD) than WLBU2 (SEQ ID No. 26). The MTD for WLBU2 (SEQ ID No. 26) is 15 mg/kg, for Colistin is 10 mg/kg, and SEQ ID No. 15 is 30 mg/kg (FIG. 14A).
Mice (strain: Swiss Webster) were injected with SEQ ID No. 15 peptides intravenously (i.v.) or intraperitoneally (i.p.) at the concentrations indicated. […] Thus, the estimated maximum tolerated dose (MTD) is around 40-50 mpk (i.v.). On a similar setting of testing other AMPS, the MTD for WLBU2 is 15 mpk (i.v.) and 10 mpk (i.v.) for colistin.

[3] = test system: Pseudomonas aeruginosa MDR clinical isolates; type: cell-based; settings: Table 3
Protocol: (§1) The bactericidal activities were examined using standard bacterial culture media (MHB) without the inclusion of human blood.
(§2) Tables 3 and 4 provide the MIC data for the tested AMPs against a variety of infectious species. The following strains were tested: Enterococcus faecium MDR clinical isolates Ef 25153 and Ef 26125; methicillin-resistant Staphylococcus aureus (MRSA) clinical isolates USA300 and 150-10; Klebsiella pneumonia MDR clinical isolates C3, C5, A5, D7 and E6; and Pseudomonas aeruginosa MDR clinical isolates PA 82-8 and PA 129-5. […] Table 5 provides the data for the D-amino acid substituted AMPs and their bactericidal activities against various Klebsiella pneumonia multi-drug resistant (MDR) clinical isolates. All odd number Kp bacteria (isolated prior to colistin treatment; colistin sensitive) are paired with the corresponding even number Kp bacteria (isolated after colistin treatment; colistin resistant) from the same patient. O.D. readings represent the bacterial growth with a background reading of about 0.049+/−0.003.

[4] = test system: methicillin-resistant Staphylococcus aureus (MRSA) clinical isolates; type: cell-based; settings: Table 3
Protocol: as §1, §2

[5] = test system: Klebsiella pneumonia MDR clinical isolates; type: cell-based; settings: Table 3
Protocol: as §1, §2

[6] = test system: Enterococcus faecium MDR clinical isolates; type: cell-based; settings: Table 3
Protocol: as §1, §2

RRWVRRVRRVWRRVVRVVRRWVRR [SEQ ID No. 26, reference compound]
toxicity to primary HBE cells [1]: toxic to primary HBE cells
cytopathology in Hep2 cells (Hep2 epithelial cells): caused cytopathology
MTD ([2]; Swiss Webster, mouse, in vivo, FIG. 14A, read-out: maximum tolerated dosage (MTD)): 15 mg/kg
maximum tolerated dose (MTD) ([2]; i.v., Swiss Webster mice): 15 mpk
MIC PA 82-8 ([3]; isolate PA 82-8): 4 µM
MIC PA 129-5 ([3]; isolate PA 129-5): <4 µM
MIC MRSA 150-10 ([4]; isolate 150-10): 8 µM
MIC MRSA USA300 ([4]; isolate USA300): <4 µM
MIC A5 ([5]; isolate A5): >8 µM
MIC C3 ([5]; isolate C3): 16 µM
MIC C5 ([5]; isolate C5): 16 µM
MIC D7 ([5]; isolate D7): <4 µM
MIC E6 ([5]; isolate E6): <4 µM
MIC Ef 25153 ([6]; isolate Ef 25153): <4 µM
MIC Ef 26125 ([6]; isolate Ef 26125): <4 µM
